Source: paper PMC6476176 (Ultrasound in medicine & biology, 2018)
Where two headings read alike, the source gives them in different places.

What was measured:
[1] = cited from earlier work
[2] = Plasma T-20 concentration and pharmacokinetics in porcine model; assay type: in vivo, Yorkshire pigs; conditions: Yorkshire, pig, sc, 90 mg
[3] = Histological analysis of skin samples; assay type: in vivo, Yorkshire pigs; conditions: pig
[4] = T-20 subcutaneous injection twice daily 29 days, n=12

## enfuvirtide
[1]; human, in vivo
  AUC∞: 55.8 (22%) μg·h/mL
  Cmax: 4.59 (32%) μg/mL
  Tmax humans (median): 6.9 h
  Tmax humans (range): 3 to 12 h
  tmax: 6.92 (36%) h
  t½: 3.80 (15%) h
[1]; human, ref Usa, 2012
  typical human plasma Ctrough: 3300 ± 1600 ng/mL
[1]; in vivo
  CI: 1.68 (22%) L/h
[2]
  AUC(0-inf): 43300 ng·h/mL
  Cmax: 6310 ng/mL
  half-life: 3.97 h
  tmax: 2.5 h
[3]; in vivo
  Skin irritation: Major, number of Subjects: 1
  Skin irritation: Minor, number of Subjects: 4
  Skin irritation: None, number of Subjects: 7
  Skin irritation: Similar to Eczema, number of Subjects: 1
[3]; in vivo, sc
  Skin irritation: Major+ Necrosis, number of Subjects: 3
[3]; [4]
  Skin irritation: Major, number of Subjects: 3
  Skin irritation: Minor, number of Subjects: 3
  Skin irritation: None, number of Subjects: 2
  Skin irritation: Similar to Eczema, number of Subjects: 1
